The text below walks through data of article PMC7848973, “In Vivo Efficacy and Metabolism of the Antimalarial Cycleanine and Improved In Vitro Antiplasmodial Activity of Semisynthetic Analogues” (Antimicrobial Agents and Chemotherapy, 2021).

Series [1] has as its system P. falciparum chloroquine-sensitive clone 3D7. More on the design: method as in PMID 26594753. The following applies: read-out: IC50 against P. falciparum chloroquine-sensitive clone 3D7; cited from earlier work.
The test system of series [2] is P. falciparum chloroquine-sensitive strain D6. The following applies: read-out: IC50 against P. falciparum strain D6; cited from earlier work.
A short description of series [3]: Acute median lethal dose (LD50) of cycleanine in mice. The following applies: 24 h, intraperitoneal. It is filed as in vivo. Here is the method:
(§1) (iii) Experimental animals. Female and male Swiss albino mice (18 to 25 g) were obtained from the University of Uyo’s animal house. Before use, mice were kept in cages and acclimatized for 10 days. All mice were kept in cross-ventilated rooms at room temperature. The care and use of mice were performed in accordance with the National Institutes of Health Guide for the Care and Use of Laboratory Animals (1996). This investigation was approved by the University of Uyo’s Animal Ethics Committee.
(iv) Determination of median lethal dose (LD50) of cycleanine. The median lethal dose (LD50) of cycleanine was determined using albino mice by the intraperitoneal (i.p.) route ([40]). Different doses of cycleanine (10 to 5,000 mg/kg) were intraperitoneally administered to groups of three mice each. The mice were monitored for manifestation of physical signs of toxicity, including decrease of motor activity, writhing, decrease of body/limb tone, weakness, and death. The number of deaths in each group within 24 h was recorded. The LD50 value was calculated as the geometrical means of the minimum dose producing 100% mortality and the maximum dose producing 0%.

Series [4] deals with Plasmodium berghei. As to the kind of experiment: Curative activity during established P. berghei infection of mice. It is filed as in vivo. The following applies: curative model, n = 6; for MST: over 30 days. The protocol: (§2) (i) Malaria parasite. Chloroquine-sensitive strains of P. berghei were sourced from the National Institute of Medical Research (NIMER), Yaba Lagos, Nigeria, and maintained by subpassage in mice.
(§3) (ii) Parasite inoculation. Each mouse was inoculated intraperitoneally with about 1 × 10^7 P. berghei parasitized erythrocytes in 0.2 ml of infected blood (5 × 10^7 P. berghei erythrocytes/ml) according to published procedure ([39]).
as §1
(§4) (v) Drug administration. Cycleanine, chloroquine, and pyrimethamine were prepared in water and administered orally with the aid of a stainless metallic feeding cannula.
(viii) Curative activity of cycleanine. The curative activity of cycleanine was assessed according to a method described previously ([42], [44]). P. berghei was injected intraperitoneally into another 24 mice on the first day. Three days later, the mice were also separated into four groups of six mice per group. Groups 1 and 2 were administered different doses of cycleanine, 25 and 50 mg/kg, respectively, group 3 was given 5 mg/kg chloroquine (positive control), and group 4 was given 10 ml/kg distilled water (negative control). Cycleanine and chloroquine were given once a day for 5 days. Mouse tail blood samples were collected on each day, and Giemsa-stained thin smears were prepared to determine the parasitemia level. The MST of the mice in each group was determined over a period of 30 days.

For series [5], the system named is chloroquine-resistant P. falciparum strain W2. The following applies: cited from earlier work.
In series [6] the test system is Plasmodium berghei. As to the kind of experiment: Suppressive activity during early P. berghei infection of mice. The format is in vivo. The following applies: suppressive model; for Parasitemia after infection for 96 h / MST: mean ± SEM, n = 6; for MST: over 30 days. Here is the method:
as §2, §3, §1, §4
(vi) Suppressive activity of cycleanine. The schizontocidal activity of cycleanine and chloroquine against early P. berghei infection in mice was measured according to an established protocol ([25], [41], [42]). On the first day, 20 to 24 mice were infected with the parasite and randomly separated into four groups. The mice in groups 1 and 2 were given 25 and 50 mg/kg of cycleanine, respectively, those in group 3 were given 5 mg/kg of chloroquine (positive control), and those in group 4 were given distilled water (10 ml/kg, negative control) for four consecutive days. Thin films were made from the tail blood on the fifth day. Parasitized erythrocytes were counted in stained films (Giemsa stain) under a microscope. The average suppression of parasitemia (%) was calculated as follows: average % parasitemia positive control−average % parasitemia negative control/average % parasitemia negative control×100
The MST (in days) of the mice in each group was determined over a period of 30 days.

For series [7], the system named is Plasmodium berghei. As to the kind of experiment: Prophylactic activity in P. berghei infection of mice. It is filed as in vivo. The following applies: prophylactic model; for Parasitemia level after infection for 72 h / MST: mean ± SEM, n = 6; for MST: over 30 days. The protocol:
as §2, §3, §1, §4
(vii) Prophylactic activity of cycleanine. The prophylactic activity of cycleanine was evaluated using a previously described method ([42], [43]). The mice were randomly divided into four groups of six mice per group. Groups 1 and 2 were given 25 and 50 mg/kg of cycleanine, respectively, group 3 was given 1.2 mg/kg of pyrimethamine (positive control), and group 4 was given 10 ml/kg of distilled water (negative control). Administration of cycleanine or the drug continued for three consecutive days. On the fourth day, the mice were inoculated with P. berghei. The parasitemia level was evaluated by blood smears after 3 days. The survival times (days) of the mice were recorded over a period of 30 days, and MST were calculated.

On the set-up of series [8]: method as in earlier work. The following applies: mice; cited from earlier work.
Series [9] concerns P. falciparum Dd2 chloroquine-resistant strain. As to the kind of experiment: In vitro antiplasmodial activity, SYBR green I fluorescence assay. The format is cell-based, Plasmodium falciparum. Here is the method:
Normalized fluorescence signals were measured against controls with 1% DMSO (100% growth) and after exposure to a supralethal concentration (10 μM) of chloroquine (0% growth). Determination of the 50% inhibitory concentration (IC50) was performed from a log concentration versus the mean normalized fluorescence signal curve using GraphPad Prism software (v5.0). Each biological replicate consisted of three technical repeats, with three independent biological replicates performed.

The test system of series [10] is human ovarian epithelial (HOE) cells. The following applies: cited from earlier work.
Series [11] concerns human oral epidermoid carcinoma (KB) cells. Set-up: method as in PMID 9917283. The following applies: cited from earlier work.
Series [12] deals with HCT-116 human colon carcinoma cells. The following applies: cited from earlier work.
The mark [13] stands for this setting: 25 mg/kg oral, mean ± SEM, 25 mg/kg.
Setting [14] is: 50 mg/kg oral, mean ± SEM, 50 mg/kg.
Where [15] appears, read: chloroquine-resistant strain, ref 16, read-out: IC50 against P. falciparum strain W2.
The mark [16] stands for this setting: chloroquine-resistant strain, ref 18, read-out: IC50 against P. falciparum strain W2.
[17] abbreviates: read-out: CC50 against HOE, human ovarian epithelial (HOE) cells.
Setting [18] is: Plasmodium falciparum, DD2, chloroquine-resistant strain, mean ± SD, n = 3 independent biological repeats, read-out: IC50 against P. falciparum strain Dd2.
[19] abbreviates: Plasmodium falciparum, DD2, read-out: IC50 against P. falciparum strain Dd2.

Like-named read-outs stand apart in the source and are kept apart here. Marks after values point to notes of the source that are not given here. Some results are limits rather than exact numbers.

With cycleanine, the concentration for half-maximal inhibition (IC50) (in general, the concentration needed to halve the response being measured) was 0.08 µM in series [1]; 0.07 µM in series [2]; 0.25 µM in series [5] (setting [15]); 4.5 µM in series [5] (setting [16]); 17.7 ± 2 µM in series [9] (chloroquine-resistant strain, mean ± SD, n = 3 independent biological repeats, read-out: IC50 against P. falciparum strain Dd2). Besides, in [3], the “Acute median lethal dose (LD50)” value turned out to be 4500 mg/kg. The “Parasitaemia Day 3” value is given as 12.7 ± 1.7% with Plasmodium berghei [4] (25 mg/kg oral, mean ± SEM) and 15.5 ± 0.9% in the series on Plasmodium berghei [4] (50 mg/kg oral, mean ± SEM). Moreover, the “Parasitaemia Day 5” value in the series with Plasmodium berghei [4] (setting [13]) turned out to be 13.3%; in the series with Plasmodium berghei [4] (setting [14]), 10.5%. Moreover, the MST in the series on Plasmodium berghei [4] (setting [13]) is 21 days; with Plasmodium berghei [4] (setting [14]) it was 25 days; in the series with Plasmodium berghei [6] (25 mg/kg per day oral), 24.7 ± 1.1^b days; in the series with Plasmodium berghei [6] (50 mg/kg per day oral), 28.2 ± 0.9^b days; in the series on Plasmodium berghei [7] (25 mg/kg per day oral), 23.0 ± 0.6^b days; in the series with Plasmodium berghei [7] (50 mg/kg per day oral) it was 24.5 ± 0.6^b days. In addition, the “Parasitaemia Day 6” value in the series with Plasmodium berghei [4] (50 mg/kg oral, mean ± SEM) is reported as 6.0 ± 1.0%. Also, in the series with Plasmodium berghei [4] (50 mg/kg oral, mean ± SEM), the “Parasitaemia Day 7” value was found to be 3.7 ± 1.1%. In addition, the “Suppression of parasitemia at 96 h” value in the series on Plasmodium berghei [6] (25 mg/kg per day oral) is 44.7%; in the series on Plasmodium berghei [6] (50 mg/kg per day oral), 86.5%. The “Parasitemia after infection for 96 h” value was 15.7 ± 1.8^b % in the series with Plasmodium berghei [6] (25 mg/kg per day oral) and 3.8 ± 0.7^b % in the series on Plasmodium berghei [6] (50 mg/kg per day oral). The “Suppression of parasitemia level after infection for 72 h” value in the series with Plasmodium berghei [7] (25 mg/kg per day oral) came to 43.4%; in the series with Plasmodium berghei [7] (50 mg/kg per day oral), 59.0%. The “Parasitemia level after infection for 72 h” value in the series on Plasmodium berghei [7] (25 mg/kg per day oral) is listed as 11.5 ± 0.9^b %; with Plasmodium berghei [7] (50 mg/kg per day oral), 8.3 ± 1.0^b %. Also, the LD50 (as a rule, the dose expected to kill half of the subjects tested) in series [8] was 1100 mg/kg. Further, the CC50 (usually the concentration at which the toxic effect on the cells reaches its halfway point) in series [10] (setting [17]) was 35 ± 0.1 µM; in series [12] (read-out: CC50 against cancer cell line HCT, HCT-116 human colon carcinoma cells), 531 µM. For the same compound, the “CC50 against cancer cell line KB” value in [11] is more than 33.7 µM.
Regarding `COc1cc2c3c(c1OC)Oc1ccc(cc1)C[C@H]1c4c(c(CN(C)C)c(OC)c(OC)c4Oc4ccc(cc4)C[C@@H]3N(C)CC2)CCN1C` [5-[(Dimethylamino)methyl]cycleanine (4), 5-[(Dimethylamino)methyl]cycleanine], the IC50 in series [9] (setting [18]) amounted to 0.7 ± 0.1 µM. The half-maximal cytotoxic concentration (CC50) in [10] (setting [17]) was 10 ± 0.2 µM.
For the compound `C#CCNCc1c2c3c(c(OC)c1OC)Oc1ccc(cc1)C[C@H]1c4c(cc(OC)c(OC)c4Oc4ccc(cc4)C[C@@H]3N(C)CC2)CCN1C` [5-[(Propargylamino)methyl]cycleanine (5), 5-[(Propargylamino)methyl]cycleanine], the IC50 in series [9] (setting [18]) stood at 1.8 ± 0.2 µM. The cytotoxic concentration (CC50) in series [10] (setting [17]) is 32 ± 1.6 µM.
As for `CCc1nc(N)nc(N)c1-c1ccc(Cl)cc1` [Pyrimethamine, reference compound], in the series on Plasmodium berghei [7] (1.2 mg/kg per day oral), the “Suppression of parasitemia level after infection for 72 h” value was found to be 76.2%, the “Parasitemia level after infection for 72 h” value is 4.8 ± 1.1^b % and the MST is on record as 29.8 ± 0.2^b days.
For `COc1cc2c3c4c1Oc1cc5c(cc1O4)C(Cc1ccc(O)c(c1)Oc1ccc(cc1)CC3NCC2)N(C)CC5` (centres unmarked) [2′-Norcocsuline (3), 2′-norcocsuline], the values for the IC50 in series [2], in series [5] (read-out: IC50 against chloroquine-resistant clone W2) and in [9] (setting [18]) were 0.048 µM, 0.248 µM and 7 ± 1.6 µM, respectively. Further, the half-maximal cytotoxic concentration (CC50) in [10] (setting [17]) was 8 ± 0.2 µM. In addition, in series [11], the “CC50 against cancer cell line KB” value is listed as 3.8^b μM.
Consider `CCN(CC)CCCC(C)Nc1ccnc2cc(Cl)ccc12` (centres unmarked) [Chloroquine, reference compound], for which the IC50 in series [2] was 0.006 µM. In the series on Plasmodium berghei [4] (5 mg/kg oral, mean ± SEM), the “Parasitaemia Day 3” value turned out to be 12.4 ± 0.5% and the “Parasitaemia Day 4” value came to 2.1 ± 0.2%. Besides, in the series with Plasmodium berghei [4] (5 mg/kg oral), the “Parasitaemia Day 6” value is listed as 0.0% and the “Parasitaemia Day 7” value came to 0.0%. Moreover, in the series with Plasmodium berghei [4] (5 mg/kg oral, 5 mg/kg), the “Parasitaemia Day 5” value was 0%. Besides, in the series on Plasmodium berghei [4] (5 mg/kg oral, mean ± SEM, 5 mg/kg), the MST stood at 30 days. Moreover, the IC50 in series [5] (setting [15]) is 0.135 µM. In the series on Plasmodium berghei [6] (5 mg/kg per day oral), the “Suppression of parasitemia at 96 h” value is reported as 94.0%, the “Parasitemia after infection for 96 h” value is 2.0 ± 0.8^b % and the MST was 30.0 ± 0.0^b days. For the same compound, in series [9] (setting [19]), the IC50 turned out to be 0.18 ± 0.03 µM. Also, the “CC50 against cancer cell line KB” value in series [11] is 33.7^b μM.
For `COc1cc2c3c(c1O)Oc1ccc(cc1)C[C@@H]1c4c(cc(OC)c(O)c4Oc4ccc(cc4)C[C@H]3N(C)CC2)CCN1C` [Isochondodendrine (2), isochondodendrine], the IC50 in series [5] (setting [16]) was 0.2 µM; in series [9] (setting [19]) it was 6.1 ± 1.3 µM. In addition, the CC50 is 10.5 ± 1.2 µM in series [10] and 29 µM in series [12].
